Assays:
Assay in all cases: KINOMEscan competition binding
Conditions in all cases: compound 10.0 µM
ADCK3 (human) = ADCK3 (human) (UniProt Q8NI60)
TXK (human) = TXK (human) (UniProt P42681)
ULK1 (human) = ULK1 (human) (UniProt O75385)
CDK15 (human) = CDK15 (human) (UniProt Q96Q40)
CDKL1 (human) = CDKL1 (human) (UniProt Q00532)
CDK16 (human) = CDK16 (human) (UniProt Q00536)
MAP3K6 (human) = MAP3K6 (human) (UniProt O95382)
STK32A (human) = STK32A (human) (UniProt Q8WU08)
CSK (human) = CSK (human) (UniProt P41240)
MYO3B (human) = MYO3B (human) (UniProt Q8WXR4)
CIT (human) = CIT (human) (UniProt O14578)
CDK14 (human) = CDK14 (human) (UniProt O94921)
EPHA5 (human) = EPHA5 (human) (UniProt P54756)
TYRO3 (human) = TYRO3 (human) (UniProt Q06418)
MAPK7 (human) = MAPK7 (human) (UniProt Q13164)
PIK3CB (human) = PIK3CB (human) (UniProt P42338)
PTK6 (human) = PTK6 (human) (UniProt Q13882)
PAK6 (human) = PAK6 (human) (UniProt Q9NQU5)
MAPK13 (human) = MAPK13 (human) (UniProt O15264)
TAOK1 (human) = TAOK1 (human) (UniProt Q7L7X3)
PIK3CA (human) = PIK3CA (human) (UniProt P42336)
STK33 (human) = STK33 (human) (UniProt Q9BYT3)
CSNK1A1 (human) = CSNK1A1 (human) (UniProt P48729)
CDK18 (human) = CDK18 (human) (UniProt Q07002)
MAP2K7 (human) = MAP2K7 (human) (UniProt O14733)
BRSK2 (human) = BRSK2 (human) (UniProt Q8IWQ3)
MAP3K4 (human) = MAP3K4 (human) (UniProt Q9Y6R4)
PDGFRB (human) = PDGFRB (human) (UniProt P09619)
MAPK14 (human) = MAPK14 (human) (UniProt Q16539)
PI4KB (human) = PI4KB (human) (UniProt Q9UBF8)
PLK3 (human) = PLK3 (human) (UniProt Q9H4B4)
TNK2 (human) = TNK2 (human) (UniProt Q07912)
MAP3K7 (human) = MAP3K7 (human) (UniProt O43318)
CSF1R (human) = CSF1R (human) (UniProt P07333)
MAK (human) = MAK (human) (UniProt P20794)
TNNI3K (human) = TNNI3K (human) (UniProt Q59H18)
RPS6KA1 KD2 (human) = RPS6KA1 KD2 (human) (UniProt Q15418)
CSNK1D (human) = CSNK1D (human) (UniProt P48730)
PTK2B (human) = PTK2B (human) (UniProt Q14289)
RAF1 (human) = RAF1 (human) (UniProt P04049)

Chain of CSNK1A1 (human) (P48729 whole entry, looked up): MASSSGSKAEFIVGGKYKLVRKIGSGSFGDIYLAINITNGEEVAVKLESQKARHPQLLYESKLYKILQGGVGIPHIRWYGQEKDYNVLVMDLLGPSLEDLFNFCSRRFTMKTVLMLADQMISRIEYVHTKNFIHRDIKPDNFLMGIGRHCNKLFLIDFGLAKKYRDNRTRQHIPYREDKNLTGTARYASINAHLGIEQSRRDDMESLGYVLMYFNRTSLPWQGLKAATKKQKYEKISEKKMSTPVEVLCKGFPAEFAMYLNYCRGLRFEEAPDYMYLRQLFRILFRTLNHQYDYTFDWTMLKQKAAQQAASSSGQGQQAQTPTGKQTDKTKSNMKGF
Chain of PDGFRB (human) (P09619 whole entry, looked up): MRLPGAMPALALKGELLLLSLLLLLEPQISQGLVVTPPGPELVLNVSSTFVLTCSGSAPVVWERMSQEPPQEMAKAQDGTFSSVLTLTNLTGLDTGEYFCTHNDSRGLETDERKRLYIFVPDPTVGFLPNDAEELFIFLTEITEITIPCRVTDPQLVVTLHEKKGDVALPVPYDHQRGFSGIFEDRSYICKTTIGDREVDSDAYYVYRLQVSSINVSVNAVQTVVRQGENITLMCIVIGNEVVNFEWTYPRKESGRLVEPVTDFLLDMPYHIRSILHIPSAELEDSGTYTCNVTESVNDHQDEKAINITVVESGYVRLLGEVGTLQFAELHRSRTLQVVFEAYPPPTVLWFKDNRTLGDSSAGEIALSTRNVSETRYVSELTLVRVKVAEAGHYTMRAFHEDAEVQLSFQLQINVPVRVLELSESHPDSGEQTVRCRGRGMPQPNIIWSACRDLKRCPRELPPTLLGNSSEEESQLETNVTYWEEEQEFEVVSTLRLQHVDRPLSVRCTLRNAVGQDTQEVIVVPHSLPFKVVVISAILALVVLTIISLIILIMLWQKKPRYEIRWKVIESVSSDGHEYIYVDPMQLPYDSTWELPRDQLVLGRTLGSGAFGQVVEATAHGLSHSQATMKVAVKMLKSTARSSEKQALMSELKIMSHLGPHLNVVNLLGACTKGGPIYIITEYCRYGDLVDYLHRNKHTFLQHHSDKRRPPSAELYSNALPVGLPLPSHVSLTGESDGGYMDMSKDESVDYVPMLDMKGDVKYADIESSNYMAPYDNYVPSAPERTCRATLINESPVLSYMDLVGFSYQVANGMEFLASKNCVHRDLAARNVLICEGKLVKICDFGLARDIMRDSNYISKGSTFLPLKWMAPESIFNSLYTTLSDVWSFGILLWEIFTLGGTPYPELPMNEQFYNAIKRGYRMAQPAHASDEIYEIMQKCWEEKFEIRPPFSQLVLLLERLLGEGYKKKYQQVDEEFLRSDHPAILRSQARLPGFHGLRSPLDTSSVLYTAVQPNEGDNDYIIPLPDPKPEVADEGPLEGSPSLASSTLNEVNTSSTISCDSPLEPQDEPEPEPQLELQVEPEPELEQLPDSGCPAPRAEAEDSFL
Chain of ULK1 (human) (O75385 whole entry, looked up): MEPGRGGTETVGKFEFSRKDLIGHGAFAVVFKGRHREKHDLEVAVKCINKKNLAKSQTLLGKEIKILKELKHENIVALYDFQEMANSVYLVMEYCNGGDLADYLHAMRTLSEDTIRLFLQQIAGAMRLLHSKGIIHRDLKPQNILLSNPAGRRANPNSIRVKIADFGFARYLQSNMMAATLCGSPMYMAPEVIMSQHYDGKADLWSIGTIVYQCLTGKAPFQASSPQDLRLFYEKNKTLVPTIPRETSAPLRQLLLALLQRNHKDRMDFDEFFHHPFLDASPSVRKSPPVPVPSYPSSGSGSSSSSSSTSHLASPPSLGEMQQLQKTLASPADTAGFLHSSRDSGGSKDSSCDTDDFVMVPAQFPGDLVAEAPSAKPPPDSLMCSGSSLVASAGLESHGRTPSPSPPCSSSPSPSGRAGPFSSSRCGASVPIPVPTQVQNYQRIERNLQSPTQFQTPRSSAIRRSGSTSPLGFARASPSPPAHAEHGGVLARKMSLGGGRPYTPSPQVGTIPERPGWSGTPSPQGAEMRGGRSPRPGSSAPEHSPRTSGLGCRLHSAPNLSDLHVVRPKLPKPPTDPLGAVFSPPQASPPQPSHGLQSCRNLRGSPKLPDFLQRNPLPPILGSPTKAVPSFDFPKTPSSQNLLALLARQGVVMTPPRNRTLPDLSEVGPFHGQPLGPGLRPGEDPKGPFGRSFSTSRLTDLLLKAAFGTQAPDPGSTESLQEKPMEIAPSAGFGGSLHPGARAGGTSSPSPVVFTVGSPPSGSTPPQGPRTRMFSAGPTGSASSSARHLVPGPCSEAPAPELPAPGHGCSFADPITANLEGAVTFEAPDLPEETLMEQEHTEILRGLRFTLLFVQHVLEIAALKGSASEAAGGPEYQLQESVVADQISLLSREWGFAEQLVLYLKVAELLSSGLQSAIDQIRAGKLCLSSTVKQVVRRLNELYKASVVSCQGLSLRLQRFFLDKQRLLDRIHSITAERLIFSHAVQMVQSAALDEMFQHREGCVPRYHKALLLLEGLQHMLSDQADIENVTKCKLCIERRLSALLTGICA
Chain of MAP3K7 (human) (O43318 whole entry, looked up): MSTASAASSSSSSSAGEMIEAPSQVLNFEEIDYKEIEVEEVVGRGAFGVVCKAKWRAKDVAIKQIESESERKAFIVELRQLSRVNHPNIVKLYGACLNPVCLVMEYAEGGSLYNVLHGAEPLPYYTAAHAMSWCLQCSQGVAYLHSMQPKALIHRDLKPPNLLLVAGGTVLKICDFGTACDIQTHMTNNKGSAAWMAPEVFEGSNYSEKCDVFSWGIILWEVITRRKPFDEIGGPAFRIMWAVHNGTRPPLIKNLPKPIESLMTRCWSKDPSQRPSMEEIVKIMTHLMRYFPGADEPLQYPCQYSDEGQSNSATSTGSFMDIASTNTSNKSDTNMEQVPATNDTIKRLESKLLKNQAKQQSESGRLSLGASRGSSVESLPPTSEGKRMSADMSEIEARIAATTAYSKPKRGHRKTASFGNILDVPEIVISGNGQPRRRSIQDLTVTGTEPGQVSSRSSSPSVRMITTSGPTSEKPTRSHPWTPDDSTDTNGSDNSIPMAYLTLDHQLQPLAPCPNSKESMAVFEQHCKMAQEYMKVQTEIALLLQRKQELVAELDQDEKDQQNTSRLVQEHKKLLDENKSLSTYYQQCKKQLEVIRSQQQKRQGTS
Chain of CDK15 (human) (Q96Q40 whole entry, looked up): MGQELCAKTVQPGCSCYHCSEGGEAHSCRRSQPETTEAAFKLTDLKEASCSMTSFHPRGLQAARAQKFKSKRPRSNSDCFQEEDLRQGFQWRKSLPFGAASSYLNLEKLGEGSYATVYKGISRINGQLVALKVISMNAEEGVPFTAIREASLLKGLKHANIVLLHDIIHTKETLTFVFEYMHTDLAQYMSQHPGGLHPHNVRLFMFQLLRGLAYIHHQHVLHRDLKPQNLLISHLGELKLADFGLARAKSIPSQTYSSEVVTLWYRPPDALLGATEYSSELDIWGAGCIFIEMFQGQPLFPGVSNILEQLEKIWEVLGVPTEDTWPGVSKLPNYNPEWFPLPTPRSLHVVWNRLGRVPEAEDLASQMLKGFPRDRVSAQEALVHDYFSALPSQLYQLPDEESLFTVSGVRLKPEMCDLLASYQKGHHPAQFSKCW
Chain of STK33 (human) (Q9BYT3 whole entry, looked up): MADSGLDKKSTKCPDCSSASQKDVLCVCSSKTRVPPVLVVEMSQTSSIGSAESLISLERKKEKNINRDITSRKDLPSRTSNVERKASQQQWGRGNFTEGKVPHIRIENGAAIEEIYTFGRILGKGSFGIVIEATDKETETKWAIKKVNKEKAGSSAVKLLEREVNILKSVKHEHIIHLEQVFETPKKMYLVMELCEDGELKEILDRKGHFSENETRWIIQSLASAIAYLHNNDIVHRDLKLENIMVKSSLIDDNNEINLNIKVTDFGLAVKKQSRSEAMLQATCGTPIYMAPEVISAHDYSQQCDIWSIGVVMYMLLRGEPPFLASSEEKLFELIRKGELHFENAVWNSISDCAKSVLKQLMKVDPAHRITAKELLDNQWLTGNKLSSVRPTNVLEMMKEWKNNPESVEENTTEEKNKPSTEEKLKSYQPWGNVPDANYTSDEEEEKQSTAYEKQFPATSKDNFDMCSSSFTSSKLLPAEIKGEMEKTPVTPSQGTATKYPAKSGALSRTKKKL
Chain of TYRO3 (human) (Q06418 whole entry, looked up): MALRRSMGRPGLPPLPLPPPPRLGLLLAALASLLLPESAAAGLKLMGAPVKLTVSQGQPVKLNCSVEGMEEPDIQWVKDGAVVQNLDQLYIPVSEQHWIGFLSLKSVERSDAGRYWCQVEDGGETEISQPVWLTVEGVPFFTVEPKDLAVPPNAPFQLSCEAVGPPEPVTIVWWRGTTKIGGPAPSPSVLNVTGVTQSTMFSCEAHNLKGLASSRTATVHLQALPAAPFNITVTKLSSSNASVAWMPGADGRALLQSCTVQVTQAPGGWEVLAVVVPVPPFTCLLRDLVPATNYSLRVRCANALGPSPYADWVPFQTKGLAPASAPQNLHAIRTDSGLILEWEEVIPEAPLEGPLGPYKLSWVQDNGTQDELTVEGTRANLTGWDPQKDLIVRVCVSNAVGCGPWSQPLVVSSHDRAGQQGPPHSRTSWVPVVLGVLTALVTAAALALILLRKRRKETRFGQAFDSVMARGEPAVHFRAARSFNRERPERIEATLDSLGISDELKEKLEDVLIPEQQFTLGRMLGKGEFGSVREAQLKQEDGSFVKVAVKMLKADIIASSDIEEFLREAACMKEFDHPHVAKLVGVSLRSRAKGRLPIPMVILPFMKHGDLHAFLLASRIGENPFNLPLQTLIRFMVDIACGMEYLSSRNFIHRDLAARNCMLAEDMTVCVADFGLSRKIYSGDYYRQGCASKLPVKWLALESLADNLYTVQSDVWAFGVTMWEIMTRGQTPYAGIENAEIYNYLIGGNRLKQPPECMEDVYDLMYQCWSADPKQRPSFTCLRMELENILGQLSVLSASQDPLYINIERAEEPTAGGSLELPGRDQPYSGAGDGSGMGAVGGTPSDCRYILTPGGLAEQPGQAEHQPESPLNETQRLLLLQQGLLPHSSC

| Structure (SMILES) | kinase still bound, per cent of control (ADCK3 (human)) | kinase still bound, per cent of control (TXK (human)) | kinase still bound, per cent of control (ULK1 (human)) | kinase still bound, per cent of control (CDK15 (human)) | kinase still bound, per cent of control (CDKL1 (human)) | kinase still bound, per cent of control (CDK16 (human)) | kinase still bound, per cent of control (MAP3K6 (human)) | kinase still bound, per cent of control (STK32A (human)) | kinase still bound, per cent of control (CSK (human)) | kinase still bound, per cent of control (MYO3B (human)) | kinase still bound, per cent of control (CIT (human)) | kinase still bound, per cent of control (CDK14 (human)) | kinase still bound, per cent of control (EPHA5 (human)) | kinase still bound, per cent of control (TYRO3 (human)) | kinase still bound, per cent of control (MAPK7 (human)) | kinase still bound, per cent of control (PTK6 (human)) | kinase still bound, per cent of control (PAK6 (human)) | kinase still bound, per cent of control (MAPK13 (human)) | kinase still bound, per cent of control (TAOK1 (human)) | kinase still bound, per cent of control (STK33 (human)) | other results |
| --- | --- | --- | --- | --- | --- | --- | --- | --- | --- | --- | --- | --- | --- | --- | --- | --- | --- | --- | --- | --- | --- |
| O=C(O)c1ccc(Nc2ncc3c(n2)-c2ccc(Cl)cc2C(c2c(F)cccc2F)=NC3)cc1 | 88% | 46% | 40% | 100% | 100% | 100% | 99% | 54% | 15% | 100% | 37% | 100% | 1.5% | 46% | 100% | 77% | 79% | 100% | 71% | 100% | kinase still bound, per cent of control (PIK3CB (human)): 100%; kinase still bound, per cent of control (PIK3CA (human)): 100%; kinase still bound, per cent of control (CSNK1A1 (human)): 73%; kinase still bound, per cent of control (CDK18 (human)): 100%; kinase still bound, per cent of control (MAP2K7 (human)): 100%; kinase still bound, per cent of control (BRSK2 (human)): 100%; kinase still bound, per cent of control (MAP3K4 (human)): 36%; kinase still bound, per cent of control (PDGFRB (human)): 34%; kinase still bound, per cent of control (MAPK14 (human)): 93%; kinase still bound, per cent of control (PI4KB (human)): 100%; kinase still bound, per cent of control (PLK3 (human)): 18%; kinase still bound, per cent of control (TNK2 (human)): 46%; kinase still bound, per cent of control (MAP3K7 (human)): 80%; kinase still bound, per cent of control (CSF1R (human)): 38%; kinase still bound, per cent of control (MAK (human)): 78%; kinase still bound, per cent of control (TNNI3K (human)): 85% |
| Cc1cc([C@@H](C)Nc2ccccc2C(=O)O)c2nc(N3CCOCC3)cc(=O)n2c1 | 86% | 90% | 91% | 100% | 100% | 100% | 95% | 89% | 100% | 93% | 89% | 100% | 99% | 100% | 100% | 75% | 93% | 87% | 59% | 100% | kinase still bound, per cent of control (RPS6KA1 KD2 (human)): 84%; kinase still bound, per cent of control (CSNK1A1 (human)): 63%; kinase still bound, per cent of control (CSNK1D (human)): 86%; kinase still bound, per cent of control (CDK18 (human)): 100%; kinase still bound, per cent of control (PTK2B (human)): 100%; kinase still bound, per cent of control (MAP2K7 (human)): 90%; kinase still bound, per cent of control (BRSK2 (human)): 100%; kinase still bound, per cent of control (MAP3K4 (human)): 100%; kinase still bound, per cent of control (RAF1 (human)): 100%; kinase still bound, per cent of control (PDGFRB (human)): 100%; kinase still bound, per cent of control (MAPK14 (human)): 97%; kinase still bound, per cent of control (PI4KB (human)): 100%; kinase still bound, per cent of control (PLK3 (human)): 89%; kinase still bound, per cent of control (TNK2 (human)): 100%; kinase still bound, per cent of control (MAP3K7 (human)): 89%; kinase still bound, per cent of control (CSF1R (human)): 94%; kinase still bound, per cent of control (MAK (human)): 67%; kinase still bound, per cent of control (TNNI3K (human)): 88% |
| Nc1ccc(-c2ccc3ncc4ccc(=O)n(-c5cccc(C(F)(F)F)c5)c4c3c2)cn1 | 88% | 100% | 96% | 94% | 97% | 98% | 100% | 100% | 100% | 87% | 100% | 97% | 100% | 100% | 100% | 100% | 100% | 48% | 62% | 100% | kinase still bound, per cent of control (RPS6KA1 KD2 (human)): 100%; kinase still bound, per cent of control (PIK3CB (human)): 6.6%; kinase still bound, per cent of control (CSNK1A1 (human)): 94%; kinase still bound, per cent of control (CSNK1D (human)): 63%; kinase still bound, per cent of control (CDK18 (human)): 100%; kinase still bound, per cent of control (PTK2B (human)): 86%; kinase still bound, per cent of control (MAP2K7 (human)): 100%; kinase still bound, per cent of control (BRSK2 (human)): 100%; kinase still bound, per cent of control (MAP3K4 (human)): 100%; kinase still bound, per cent of control (RAF1 (human)): 100%; kinase still bound, per cent of control (PDGFRB (human)): 34%; kinase still bound, per cent of control (MAPK14 (human)): 100%; kinase still bound, per cent of control (PLK3 (human)): 94%; kinase still bound, per cent of control (TNK2 (human)): 100%; kinase still bound, per cent of control (MAP3K7 (human)): 48%; kinase still bound, per cent of control (MAK (human)): 96%; kinase still bound, per cent of control (TNNI3K (human)): 100% |

From the kinase profiling compilation of Christmann-Franck et al. (2016)
